Where “and” joins values, the source holds several entries; their conditions need not be identical. Identical values can stand only once. Like-named read-outs stand apart in the source and are kept apart here.

Assay type in all cases: biochemical
Assay [1] concerns the target T1, TCΔC11.PTPase (Homo sapiens, UniProt P17706).
T1 construct: a truncated PTPase in which an 11-kDa segment was deleted from the carboxyl end (TCΔC11.PTPase-transfected cells); made in house; host or cells: Sf9 (Spodoptera frugiperda) insect cells, recombinant baculovirus (pVL 941)
T1 sequence (P17706 1-317 limits assumed): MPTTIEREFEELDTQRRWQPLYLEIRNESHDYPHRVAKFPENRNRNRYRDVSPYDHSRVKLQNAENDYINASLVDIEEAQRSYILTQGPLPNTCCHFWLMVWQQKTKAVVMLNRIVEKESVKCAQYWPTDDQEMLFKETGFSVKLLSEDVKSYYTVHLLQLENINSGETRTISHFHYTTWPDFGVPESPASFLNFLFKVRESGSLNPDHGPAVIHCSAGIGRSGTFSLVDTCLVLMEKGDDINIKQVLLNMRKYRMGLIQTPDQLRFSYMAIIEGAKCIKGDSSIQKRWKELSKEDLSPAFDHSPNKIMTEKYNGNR
Put plainly: Effectors of PTPase activity, truncated enzyme.

A further assay addresses T2, TC.PTPase (Homo sapiens, UniProt P17706).
T2 construct: open reading frames of the full-length 48-kDa T cell PTPase (TC.PTPase); made in house; host or cells: Sf9 (Spodoptera frugiperda) insect cells, recombinant baculovirus (pVL 941)
T2 sequence (P17706 1-415): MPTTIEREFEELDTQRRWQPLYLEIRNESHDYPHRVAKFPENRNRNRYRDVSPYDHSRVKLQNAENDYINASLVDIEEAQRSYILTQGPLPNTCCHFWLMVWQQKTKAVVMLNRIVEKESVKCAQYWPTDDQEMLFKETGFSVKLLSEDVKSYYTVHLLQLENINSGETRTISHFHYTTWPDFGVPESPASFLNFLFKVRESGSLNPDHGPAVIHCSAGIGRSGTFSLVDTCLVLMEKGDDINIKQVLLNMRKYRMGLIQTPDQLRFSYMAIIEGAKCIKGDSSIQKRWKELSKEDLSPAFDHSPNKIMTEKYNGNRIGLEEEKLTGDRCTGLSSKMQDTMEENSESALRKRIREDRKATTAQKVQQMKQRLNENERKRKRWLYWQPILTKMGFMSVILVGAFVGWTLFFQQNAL
Description: Effectors of PTPase activity, full-length enzyme. As to the method: (§1) Cell extracts or purified enzymes were assayed for tyrosine phosphatase using a method described by Tonks et al., in "Purification of the Major Protein-tyrosine-phosphatases of Human Placenta," J. Biol. Chem. (263):6722-6730, 1988, based on measurement of the release of ^32P from labeled substrate. Since phosphorylation of reduced, carboxyamidomethylated, maleylated (RCM)-lysozyme is not stoichiometric, concentrations are expressed in terms of ^32P phosphotyrosine. Briefly, a mixture of 0.02 ml of PTPase (diluted to less than 1 unit/ml in Buffer A) and 0.02 ml of Buffer A was warmed at 30°C for 5 minutes. Buffer A is composed of 25 mM imidazole HCl […], 1 mg/ml BSA, 0.1% (v/v) β-mercaptoethanol. […] The reaction was terminated after approximately 10 minutes by addition of 0.18 ml of 20% (w/v) trichloroacetic acid and 0.02 ml of 25 mg/ml BSA, added as a carrier protein. The suspension was vortexed, allowed to stand on ice for 10 minutes, and centrifuged at 12,500 x g for 3 minutes. A 0.2-ml aliquot of the supernatant was added to 1 ml of Aquasol scintillant and counted in a Beckman LS7000 scintillation counter. […] Blank incubations were performed in which the PTPase was replaced by Buffer A, and total ^32P was determined by counting 0.02 ml of the substrate. […] One unit of PTPase activity is defined as that amount which releases 1 nmol of phosphate/min. […]

Assay [2] concerns the target T1, TCΔC11.PTPase. Put plainly: Effectors of PTPase activity, truncated enzyme. To be noted: substrate RCML 5 µM. On the procedure: as §1
Setting [3] is: effector 2 mM, substrate MBP 5 µM.
Where [4] appears, read: effector 10 µM, substrate MBP 5 µM.
Setting [5] is: effector 10 µM, substrate RCML 5 µM.
Where [6] appears, read: effector 0.01 µM, substrate MBP 5 µM.
Where [7] appears, read: effector 1 µM, substrate MBP 5 µM.
The mark [8] stands for this setting: effector 100 µM, substrate MBP 5 µM.

In the case of `O=C(O)CN(CCN(CC(=O)O)CC(=O)O)CC(=O)O` [EDTA], the “Activity, percentage of phosphate released relative to control in which the effector was omitted” value at TCΔC11.PTPase [1] is 170 percentage and 150 percentage; on TC.PTPase, 124 percentage and 137 percentage.
In the case of `NCCCCNCCCN` [spermidine], the “Activity, percentage of phosphate released relative to control in which the effector was omitted” value on TCΔC11.PTPase [1] (setting [3]) amounted to 108 percentage; on TC.PTPase (setting [3]) it was 43 percentage; at TC.PTPase (effector 2 mM, substrate RCML 5 µM), 249 percentage; at TCΔC11.PTPase [2] (effector 2 mM), 132 percentage.
`NCCCNCCCCNCCCN` [spermine]: on TCΔC11.PTPase [1], the “Activity, percentage of phosphate released relative to control in which the effector was omitted” value is 110 percentage and 97 percentage. Also, on TC.PTPase, the “Activity, percentage of phosphate released relative to control in which the effector was omitted” value amounted to 62 percentage and the “activation of the full-length enzyme” value was “up to sevenfold”. The remaining activity at 2000 µM at TC.PTPase (10 min, read-out: Activity, percentage of phosphate released relative to control in which the effector was omitted) was 727%.
Turning to molybdate, the “Activity, percentage of phosphate released relative to control in which the effector was omitted” value at TCΔC11.PTPase [1] (setting [4]) worked out at 2 percentage; on TC.PTPase (setting [4]), 1 percentage; at TC.PTPase (setting [5]) it was 0 percentage; on TCΔC11.PTPase [2] (effector 10 µM), 2 percentage.
For the compound poly Glu:Tyr 4:1, the “Activity, percentage of phosphate released relative to control in which the effector was omitted” value on TCΔC11.PTPase [1] (setting [6]) was found to be 102 percentage; on TCΔC11.PTPase [1] (setting [7]) it was 104 percentage; at TCΔC11.PTPase [1] (setting [4]), 127 percentage; on TC.PTPase (setting [6]) it was 119 percentage; on TC.PTPase (effector 0.01 µM, substrate RCML 5 µM) it was 66 percentage; on TC.PTPase (setting [7]), 133 percentage. Also, the “Activity, percentage of phosphate released relative to control in which the effector was omitted” value came out at 18 percentage on TC.PTPase (effector 1 µM, substrate RCML 5 µM); 58 percentage at TC.PTPase (setting [4]); 6 percentage at TC.PTPase (setting [5]); 70 percentage at TCΔC11.PTPase [2] (effector 0.01 µM); 17 percentage at TCΔC11.PTPase [2] (effector 1 µM); 11 percentage on TCΔC11.PTPase [2] (effector 10 µM).
Turning to vanadate, the “Activity, percentage of phosphate released relative to control in which the effector was omitted” value at TCΔC11.PTPase [1] (setting [8]) is 1 percentage; at TC.PTPase (setting [8]), 0 percentage; on TC.PTPase (effector 100 µM, substrate RCML 5 µM) it was 0 percentage; at TCΔC11.PTPase [2] (effector 100 µM), 2 percentage.

The values above are taken from EP0627489B1, “Methods and compositions for the treatment of malignancies in which a protein kinase is associated” (WASHINGTON RESEARCH FOUNDATION, priority 1990, dated 1991).
